From patent US20240115541A1, “METHOD FOR TREATING CEREBRAL APOPLEXY AND HYPERBILIRUBINEMIA BY COMPOUND FOR INHIBITING COMBINATION OF BILIRUBIN AND TRPM2 CHANNEL” (SHANGHAI SIXTH PEOPLE'S HOSPITAL, priority 2022, published 2024)

Experiments:
[1] = molecular target: T1, K928A/D1069A double mutant TRPM2 channel (Homo sapiens, UniProt O94759, D1069A/K928A); assay: Whole-cell patch-clamp recording, K928A/D1069A double mutant in HEK293T cells; assay type: cell-based; details: intracellular ADPR 500 μM
T1 construct: expressed in transfected cells; host or cells: HEK293T cells, Lipofectamine 3000, GFP cDNA co-transfected as a separate marker
T1 sequence (O94759 whole entry K928A/D1069A): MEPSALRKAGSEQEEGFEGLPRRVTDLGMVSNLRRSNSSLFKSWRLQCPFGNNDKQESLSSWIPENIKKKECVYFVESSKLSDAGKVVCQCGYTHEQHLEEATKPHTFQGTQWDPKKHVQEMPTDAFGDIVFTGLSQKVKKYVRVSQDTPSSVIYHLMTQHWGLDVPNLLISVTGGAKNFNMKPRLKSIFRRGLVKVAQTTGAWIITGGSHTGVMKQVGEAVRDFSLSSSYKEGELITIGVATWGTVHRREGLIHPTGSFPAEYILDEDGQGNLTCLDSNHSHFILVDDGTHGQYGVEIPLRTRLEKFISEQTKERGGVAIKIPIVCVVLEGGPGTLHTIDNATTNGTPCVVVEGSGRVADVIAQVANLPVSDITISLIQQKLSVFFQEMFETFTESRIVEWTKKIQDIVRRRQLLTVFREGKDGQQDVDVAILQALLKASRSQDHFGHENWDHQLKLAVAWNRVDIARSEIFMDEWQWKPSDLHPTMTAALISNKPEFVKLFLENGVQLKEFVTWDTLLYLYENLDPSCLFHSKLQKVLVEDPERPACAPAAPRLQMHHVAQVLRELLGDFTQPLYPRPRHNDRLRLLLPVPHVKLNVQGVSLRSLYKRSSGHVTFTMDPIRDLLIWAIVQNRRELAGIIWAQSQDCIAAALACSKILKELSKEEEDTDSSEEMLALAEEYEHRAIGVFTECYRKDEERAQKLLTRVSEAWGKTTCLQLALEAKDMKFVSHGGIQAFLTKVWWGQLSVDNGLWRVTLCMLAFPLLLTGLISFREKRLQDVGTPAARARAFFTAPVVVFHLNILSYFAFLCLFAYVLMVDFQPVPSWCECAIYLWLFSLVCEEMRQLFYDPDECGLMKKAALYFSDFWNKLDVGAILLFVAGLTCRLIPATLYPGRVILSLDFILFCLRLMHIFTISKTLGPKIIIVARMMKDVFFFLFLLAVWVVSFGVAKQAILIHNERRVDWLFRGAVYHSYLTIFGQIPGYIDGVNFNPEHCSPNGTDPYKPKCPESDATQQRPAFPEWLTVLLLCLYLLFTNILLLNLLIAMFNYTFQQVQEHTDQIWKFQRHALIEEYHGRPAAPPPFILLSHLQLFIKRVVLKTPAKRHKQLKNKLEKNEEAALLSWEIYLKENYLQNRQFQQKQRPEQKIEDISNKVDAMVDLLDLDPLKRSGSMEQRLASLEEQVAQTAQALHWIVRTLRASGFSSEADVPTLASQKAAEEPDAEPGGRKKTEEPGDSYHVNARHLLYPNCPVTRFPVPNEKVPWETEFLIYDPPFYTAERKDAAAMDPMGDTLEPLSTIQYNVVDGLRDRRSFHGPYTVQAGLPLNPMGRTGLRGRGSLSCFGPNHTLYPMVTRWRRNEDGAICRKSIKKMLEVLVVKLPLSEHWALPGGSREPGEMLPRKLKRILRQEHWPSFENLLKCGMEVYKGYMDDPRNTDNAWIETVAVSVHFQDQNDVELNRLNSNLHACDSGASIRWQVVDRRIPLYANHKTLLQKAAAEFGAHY
Protocol: (§1) 3. Cell culture and transfection: Human embryonic kidney 293 (HEK293) cells with tetracycline-inducible expression of human TRPM2 channel (hTRPM2) were cultured in a mixed medium containing DMEM/F-12 and 10% fetal bovine serum as well as blasticidin (50 μg/ml) and zeocin (0.4 mg/ml). The expression of hTRPM2 was induced by substituting […] (1 μg/ml) 24-48 hours before use. TRPM2 channel mutants were transiently expressed in HEK293T cells by transfection with using Lipofectamine 3000. Briefly, HEK293T cells were transiently transfected with cDNAs encoding the mutant hTRPM2 channel. The cDNA for GFP was co-transfected as a marker for identification of the transfected cells for electrophysiological experiments 16-24 hours after transfection. […]
4. Whole-cell and ingle-channel patch-clamp recording: the coverslips were placed in a culture dish (35×35 mm, Sorfa) containing HEPES based extracellular solution (ECS) and recorded by patch-clamp technique. […] Each coverslip was recorded only once with different drug exposures. […] The excised patches were voltage-clamped from −80 mV to +80 mV (in 20 mV increasement) to generate the current-voltage (I-V) relationship of single channel currents from which their main conductance was calculated from the slope by linear regression of the mean current amplitude at different potentials. […]

[2] = molecular target: T2, human TRPM2 channel (hTRPM2) (Homo sapiens, UniProt O94759); assay: Single-channel (outside-out) patch-clamp recording, HEK-hTRPM2 cells; assay type: cell-based; details: FFA applied after bilirubin
T2 construct: expressed in transfected cells; host or cells: HEK293 cells with tetracycline-inducible expression
T2 sequence (O94759 whole entry): as the sequence (O94759 whole entry K928A/D1069A) above, with A928K, A1069D counted along it
Protocol: 1. Extracellular solution (in mM): 145 NaCl, 5.6 KCl, 2 MgCl2, 1.2 CaCl2, 10 HEPES, 10 glucose and pH adjusted to 7.4 by NaOH (290-320 mOsm).
2. Pipette solution contains (in mM): 147 NaCl, 1 MgCl2, 1 EGTA and 10 HEPES with pH 7.4 and osmolality 290-320 mOsm.
as §1, with “3000.” for “3000. Briefly, HEK293T cells were transiently transfected with cDNAs encoding the mutant hTRPM2 channel. The cDNA for GFP was co-transfected as a marker for identification of the transfected cells for electrophysiological experiments 16-24 hours after transfection.”
4. Whole-cell and ingle-channel patch-clamp recording: the coverslips were placed in a culture dish (35×35 mm, Sorfa) containing HEPES based extracellular solution (ECS) and recorded by patch-clamp technique. […] Each coverslip was recorded only once with different drug exposures. […] The excised patches were voltage-clamped from −80 mV to +80 mV (in 20 mV increasement) to generate the current-voltage (I-V) relationship of single channel currents from which their main conductance was calculated from the slope by linear regression of the mean current amplitude at different potentials.

[3] = tested on: cortical neurons in adult Trpm2+/+ brain slices; details: mouse, 1 h
Protocol: In this assay, surviving and dead cortical neurons were labeled with calcein-am and propidium-iodide (PI), respectively (FIG. 4K), the specific process was as follows:
Trpm2^+/+ mice aged 4-8 weeks were anesthetized by intraperitoneal injection of 1% pentobarbital (55 mg/kg). The brain tissue of the mice was then acutely isolated, and brain slices with a thickness of 150 μm were obtained using a vibratome.
The brain slices were incubated with bilirubin (Bil) and bilirubin+A23 (Bil+A23) for 1 hour at 37° C., adding calcein-am (1 μM) and PI (2 μM) for the last 15 minutes, and then washed for three times before being fixed.
When the staining was completed, the cells were fixed with 4% paraformaldehyde in a dark container for 40 minutes, and finally confocal imaging was performed. Cell counts were performed using the software of Image-J to calculate the death rate.

Nc1ncnc2c1ncn2[C@@H]1O[C@H](COP(=O)(O)OP(=O)(O)OC[C@H]2OC(O)[C@H](O)[C@@H]2O)[C@@H](O)[C@H]1O (stereo partly drawn) [ADPR, ADP-ribose]
activation of K928A/D1069A double mutant currents [1]: perfectly retained the agonist capacity

O=C(O)c1ccccc1Nc1cccc(C(F)(F)F)c1 [FFA, flufenamic acid]
effect on bilirubin-increased opening probability (Po) [2]: reversed

C=CC1=C(C)/C(=C/c2[nH]c(Cc3[nH]c(/C=C4\NC(=O)C(C)=C4C=C)c(C)c3CCC(=O)O)c(CCC(=O)O)c2C)NC1=O [bilirubin]
mortality of cortical neurons [3]: 60.84±2.13%
